According to ChEMBL document CHEMBL3877300, “Design, synthesis, docking studies and biological evaluation of novel dihydro-1,3,5-triazines as human DHFR inhibitors” (Eur J Med Chem, 2017):

Columns and labels:
[1] = molecular target: T1, Dihydrofolate reductase (Homo sapiens, UniProt P00374); assay: Inhibition of recombinant human DHFR using DHF as substrate measured every 5 sec over 6 mins in presence of NADPH by UV-Visible spectrophotometric method relative to control
T1 sequence (P00374 whole entry): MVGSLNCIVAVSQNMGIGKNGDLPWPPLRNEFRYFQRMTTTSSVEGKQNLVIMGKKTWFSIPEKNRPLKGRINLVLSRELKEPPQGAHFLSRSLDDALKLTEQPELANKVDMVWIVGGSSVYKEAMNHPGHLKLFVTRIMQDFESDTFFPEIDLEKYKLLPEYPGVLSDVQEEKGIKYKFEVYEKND

[2] = cells; details: Homo sapiens, A549, 72 h
Description: Antiproliferative activity against human A549 cells after 72 hrs by MTT assay

[3] = cells; details: Homo sapiens, HCT-116, 72 h
Description: Antiproliferative activity against human HCT116 cells after 72 hrs by MTT assay

[4] = Antiproliferative activity against human HL60 cells after 72 hrs by MTT assay; format: functional, cell-based; details: HL-60, 72 h
[5] = Antiproliferative activity against human HepG2 cells after 72 hrs by MTT assay; format: functional, cell-based; details: HepG2, 72 h
[6] = Antiproliferative activity against human MDA-MB-231 cells after 72 hrs by MTT assay; format: functional, cell-based; details: MDA-MB-231, 72 h
[7] = Antitumor activity against human A549 cells xenografted in BALB/c nude mouse assessed as tumor volume at 50 mg/kg, ip administered 14 times in 22 days measured on day 22 post dose (reference value: 912.28 +/- 140.04 mm3); format: functional
[8] = system: Mus musculus; assay: Toxicity in BALB/c nude mouse xenografted with human A549 cells assessed as body weight at 50 mg/kg, ip administered 14 times in 22 days measured on day 8 post dose (reference value: 25.19 +/- 1.38 g); format: organism-based; details: in vivo, 528 h
[9] = Antitumor activity against human A549 cells xenografted in BALB/c nude mouse assessed as tumor volume at 50 mg/kg, ip administered 14 times in 22 days measured on day 8 post dose (reference value: 288.71 +/- 54.75 mm3); format: functional
[10] = system: Mus musculus; assay: Toxicity in BALB/c nude mouse xenografted with human A549 cells assessed as body weight at 50 mg/kg, ip administered 14 times in 22 days measured on day 1 post dose (reference value: 24.73 +/- 1.33 g); format: organism-based; details: in vivo, 528 h
[11] = Antitumor activity against human A549 cells xenografted in BALB/c nude mouse assessed as tumor growth inhibition at 50 mg/kg, ip administered 14 times in 22 days measured on day 4 post dose relative to control; format: functional; details: read-out: TGI
[12] = system: Mus musculus; assay: Toxicity in BALB/c nude mouse xenografted with human A549 cells assessed as body weight at 50 mg/kg, ip administered 14 times in 22 days measured on day 11 post dose (reference value: 24.99 +/- 0.97 g); format: organism-based; details: in vivo, 528 h
[13] = Antitumor activity against human A549 cells xenografted in BALB/c nude mouse assessed as tumor growth inhibition at 50 mg/kg, ip administered 14 times in 22 days measured on day 11 post dose relative to control; format: functional; details: read-out: TGI
[14] = system: Mus musculus; assay: Toxicity in BALB/c nude mouse xenografted with human A549 cells assessed as body weight at 50 mg/kg, ip administered 14 times in 22 days measured on day 18 post dose (reference value: 25.66 +/- 1.16 g); format: organism-based; details: in vivo, 528 h
[15] = Antitumor activity against human A549 cells xenografted in BALB/c nude mouse assessed as tumor volume at 50 mg/kg, ip administered 14 times in 22 days measured on day 15 post dose (reference value: 502.27 +/- 69.26 mm3); format: functional
[16] = Antitumor activity against human A549 cells xenografted in BALB/c nude mouse assessed as tumor growth inhibition at 50 mg/kg, ip administered 14 times in 22 days measured on day 15 post dose relative to control; format: functional; details: read-out: TGI
[17] = Antitumor activity against human A549 cells xenografted in BALB/c nude mouse assessed as tumor volume at 50 mg/kg, ip administered 14 times in 22 days measured on day 4 post dose (reference value: 207.73 +/- 56.48 mm3); format: functional
[18] = Antitumor activity against human A549 cells xenografted in BALB/c nude mouse assessed as tumor volume at 50 mg/kg, ip administered 14 times in 22 days measured on day 11 post dose (reference value: 373.93 +/- 59.98 mm3); format: functional
[19] = Antitumor activity against human A549 cells xenografted in BALB/c nude mouse assessed as tumor growth inhibition at 50 mg/kg, ip administered 14 times in 22 days measured on day 22 post dose relative to control; format: functional; details: 528 h, read-out: TGI
[20] = system: Mus musculus; assay: Toxicity in BALB/c nude mouse xenografted with human A549 cells assessed as body weight at 50 mg/kg, ip administered 14 times in 22 days measured on day 22 post dose (reference value: 25.59 +/- 1.16 g); format: organism-based; details: in vivo, 528 h
[21] = Antitumor activity against human A549 cells xenografted in BALB/c nude mouse assessed as tumor volume at 50 mg/kg, ip administered 14 times in 22 days measured on day 1 post dose (reference value: 117.71 +/- 7.29 mm3); format: functional
[22] = system: Mus musculus; assay: Toxicity in BALB/c nude mouse xenografted with human A549 cells assessed as body weight at 50 mg/kg, ip administered 14 times in 22 days measured on day 4 post dose (reference value: 24.84 +/- 1.22 g); format: organism-based; details: in vivo, 528 h
[23] = Antitumor activity against human A549 cells xenografted in BALB/c nude mouse assessed as tumor growth inhibition at 50 mg/kg, ip administered 14 times in 22 days measured on day 8 post dose relative to control; format: functional; details: read-out: TGI
[24] = system: Mus musculus; assay: Toxicity in BALB/c nude mouse xenografted with human A549 cells assessed as body weight at 50 mg/kg, ip administered 14 times in 22 days measured on day 15 post dose (reference value: 25.41 +/- 1.04 g); format: organism-based; details: in vivo, 528 h
[25] = Antitumor activity against human A549 cells xenografted in BALB/c nude mouse assessed as tumor growth inhibition at 50 mg/kg, ip administered 14 times in 22 days measured on day 18 post dose relative to control; format: functional; details: read-out: TGI
[26] = Antitumor activity against human A549 cells xenografted in BALB/c nude mouse assessed as tumor volume at 50 mg/kg, ip administered 14 times in 22 days measured on day 18 post dose (reference value: 692.11 +/- 102.17 mm3); format: functional

Compound | IC50 [1] | IC50 [2] | IC50 [3] | IC50 [4] | IC50 [5] | IC50 ([6]; read-out: IC50) | other results
NC1=NC2(CCOCC2)N(OCCCOc2ccc(Cl)cc2)C(N)=N1 | 33.6 nM | 360 nM | 690 nM | 330 nM | – | – | –
NC1=NC2(CCOCC2)N(OCCCOc2cccc(Cl)c2)C(N)=N1 | – | 150 nM | 120 nM | 520 nM | 150 nM | 1020 nM | –
NC1=NC2(CCSCC2)N(OCCCOc2ccc(Br)cc2)C(N)=N1 | 6.46 nM | 740 nM | 20 nM | 350 nM | 1400 nM | 440 nM | –
Br.NC1=NC2(CCOCC2)N(OCCCOc2ccc(Cl)cc2Cl)C(N)=N1 | 7.46 nM | 70 nM | 880 nM | 330 nM | – | – | Activity [7]: 574.09 mm3; Activity [8]: 23.17 g; Activity [9]: 249.09 mm3; Activity [10]: 23.65 g; inhibition in vivo at 50 mg/kg [11]: 17.6%; Activity [12]: 22.97 g; inhibition in vivo at 50 mg/kg [13]: 16.3%; Activity [14]: 23.65 g; Activity [15]: 378.49 mm3; inhibition in vivo at 50 mg/kg [16]: 24.7%; Activity [17]: 170.3 mm3; Activity [18]: 312.21 mm3; inhibition in vivo at 50 mg/kg [19]: 36.8%; Activity [20]: 23.47 g; Activity [21]: 117.63 mm3; Activity [22]: 23.53 g; inhibition in vivo at 50 mg/kg [23]: 14.5%; Activity [24]: 23.63 g; inhibition in vivo at 50 mg/kg [25]: 32.8%; Activity [26]: 468.15 mm3
COc1ccc(OCCCON2C(N)=NC(N)=NC23CCSCC3)cc1 | – | 240 nM | 70 nM | 500 nM | 880 nM | 350 nM | –
NC1=NC2(CCOCC2)N(OCCCOc2ccc(F)cc2)C(N)=N1 | 46.6 nM | 1060 nM | 3280 nM | 2380 nM | – | – | –
NC1=NC2(CCOCC2)N(OCCCOc2ccc(Cl)c(Cl)c2)C(N)=N1 | 8.23 nM | 790 nM | 90 nM | 1240 nM | 380 nM | 590 nM | –
NC1=NC2(CCSCC2)N(OCCCOc2cccc(Br)c2)C(N)=N1 | – | 50 nM | 1 nM | 200 nM | 90 nM | 60 nM | –
NC1=NC2(CCOCC2)N(OCCCOc2ccccc2Cl)C(N)=N1 | – | 2700 nM | 70 nM | 660 nM | 1750 nM | 1430 nM | –
Cc1ccc(OCCCON2C(N)=NC(N)=NC23CCOCC3)cc1 | 56.7 nM | 1060 nM | 2390 nM | 2580 nM | – | – | –
COc1ccc(OCCCON2C(N)=NC(N)=NC23CCOCC3)cc1 | 11.1 nM | 660 nM | 1500 nM | 1670 nM | – | – | –
NC1=NC2(CCSCC2)N(OCCCOc2ccc(Cl)cc2Cl)C(N)=N1 | 4.08 nM | 210 nM | 1 nM | 330 nM | 1380 nM | 60 nM | –
NC1=NC2(CCSCC2)N(OCCCOc2cccc(Cl)c2)C(N)=N1 | – | 60 nM | 1 nM | 260 nM | 90 nM | 130 nM | –
COc1cccc2c1C(=O)c1c(O)c3c(c(O)c1C2=O)C[C@@](O)(C(=O)CO)C[C@@H]3O[C@H]1C[C@H](N)[C@H](O)[C@H](C)O1 [DOXORUBICIN] | – | 120 nM | 310 nM | – | – | – | IC50 [6]: 720 nM
NC1=NC2(CCSCC2)N(OCCCOc2ccccc2Cl)C(N)=N1 | – | 80 nM | 1 nM | 390 nM | 80 nM | 80 nM | –
